According to ChEMBL document CHEMBL1201862, “PubChem BioAssay data set” (2004):
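Assay format: 96-well plates, 48-hour exposure. The concentration for 50% growth inhibition is given as GI50.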 Calls of active or inactive are those of the source. Cut-off read from the data, not from the text of the source: active = GI50 up to about 1.1 µM and inactive = higher.

Tests used:
Assay in all cases: NCI-60 cell line screen, 48 h
[1] = test system: 786-0
[2] = test system: NCI-H226
[3] = test system: SF-295
[4] = test system: Malme-3M
[5] = test system: LOX IMVI
[6] = test system: OVCAR-4
[7] = test system: CCRF-CEM
[8] = test system: M14
[9] = test system: NCI-H23
[10] = test system: MCF7
[11] = test system: SNB-75
[12] = test system: OVCAR-8
[13] = test system: NCI-H460
[14] = test system: SN12C
[15] = test system: NCI-H522
[16] = test system: U-251
[17] = test system: HCT-15
[18] = test system: HCC 2998
[19] = test system: UO-31
[20] = test system: PC-3
[21] = test system: SK-OV-3
[22] = test system: OVCAR-3
[23] = test system: HL-60
[24] = test system: OVCAR-5
[25] = test system: SF-268
[26] = test system: ACHN
[27] = test system: Hs-578T
[28] = test system: KM12
[29] = test system: SNB-19
[30] = test system: MDA-MB-435
[31] = test system: HOP-92
[32] = test system: SF-539
[33] = test system: EKVX
[34] = test system: SW-620
[35] = test system: A549
[36] = test system: RXF 393
[37] = test system: MOLT-4
[38] = test system: DU-145
[39] = test system: TK-10
[40] = test system: UACC-257
[41] = test system: HT-29
[42] = test system: SR
[43] = test system: K562
[44] = test system: BT-549
[45] = test system: MDA-N
[46] = test system: SK-MEL-2
[47] = test system: SK-MEL-5
[48] = test system: SK-MEL-28
[49] = test system: UACC-62
[50] = test system: MDA-MB-231
[51] = test system: RPMI-8226
[52] = test system: COLO 205
[53] = test system: A498
[54] = test system: NCI/ADR-RES
[55] = test system: HOP-62
[56] = test system: HCT-116
[57] = test system: CAKI-1
[58] = test system: IGROV-1
[59] = test system: T47D

CC#CCCCC1(C)CCNC1=S (stereo not drawn)
GI50 [1]: > 10 µM (inactive) | GI50 [2]: > 10 µM (inactive) | GI50 [3]: > 10 µM (inactive) | GI50 [4]: > 10 µM (inactive) | GI50 [5]: > 10 µM (inactive) | GI50 [6]: > 10 µM (inactive) | GI50 [7]: > 10 µM (inactive) | GI50 [8]: > 10 µM (inactive) | GI50 [9]: > 10 µM (inactive) | GI50 [10]: > 10 µM (inactive) | GI50 [11]: > 10 µM (inactive) | GI50 [12]: > 10 µM (inactive) | GI50 [13]: > 10 µM (inactive) | GI50 [14]: > 10 µM (inactive) | GI50 [15]: > 10 µM (inactive) | GI50 [16]: > 10 µM (inactive) | GI50 [17]: > 10 µM | GI50 [18]: > 10 µM (inactive) | GI50 [19]: > 10 µM (inactive) | GI50 [20]: > 10 µM (inactive) | GI50 [21]: > 10 µM (inactive) | GI50 [22]: > 10 µM (inactive) | GI50 [23]: > 10 µM (inactive) | GI50 [24]: > 10 µM (inactive) | GI50 [25]: > 10 µM (inactive) | GI50 [26]: > 10 µM (inactive) | GI50 [27]: > 10 µM (inactive) | GI50 [28]: > 10 µM (inactive) | GI50 [29]: > 10 µM (inactive) | GI50 [30]: > 10 µM (inactive) | GI50 [31]: > 10 µM (inactive) | GI50 [32]: > 10 µM (inactive) | GI50 [33]: > 10 µM (inactive) | GI50 [34]: > 10 µM (inactive) | GI50 [35]: > 10 µM (inactive) | GI50 [36]: > 10 µM (inactive) | GI50 [37]: > 10 µM (inactive) | GI50 [38]: > 10 µM (inactive) | GI50 [39]: > 10 µM (inactive) | GI50 [40]: > 10 µM (inactive) | GI50 [41]: > 10 µM (inactive) | GI50 [42]: > 10 µM (inactive) | GI50 [43]: > 10 µM (inactive) | GI50 [44]: > 10 µM (inactive) | GI50 [45]: > 10 µM (inactive) | GI50 [46]: > 10 µM (inactive)

Cc1ccc(S(=O)(=O)N(c2ccccc2F)C2CCCCC2O)cc1 (stereo not drawn)
GI50 [1]: 65.6 µM (inactive) | GI50 [2]: > 100 µM (inactive) | GI50 [3]: > 100 µM (inactive) | GI50 [4]: 58.7 µM (inactive) | GI50 [5]: 38.8 µM (inactive) | GI50 [47]: 20.7 µM (inactive) | GI50 [6]: 39.5 µM (inactive) | GI50 [48]: > 100 µM (inactive) | GI50 [7]: 56.9 µM (inactive) | GI50 [8]: 74.1 µM (inactive) | GI50 [9]: 34.4 µM (inactive) | GI50 [10]: 21.7 µM (inactive) | GI50 [11]: 20 µM (inactive) | GI50 [49]: 46.9 µM (inactive) | GI50 [12]: 78 µM (inactive) | GI50 [13]: 45.9 µM (inactive) | GI50 [14]: 56.9 µM (inactive) | GI50 [16]: 46.6 µM (inactive) | GI50 [50]: 77.6 µM (inactive) | GI50 [17]: 55 µM | GI50 [51]: 36.9 µM (inactive) | GI50 [18]: 74.6 µM (inactive) | GI50 [19]: 33.1 µM (inactive) | GI50 [52]: 27.2 µM (inactive) | GI50 [20]: 35.4 µM (inactive) | GI50 [21]: 22.3 µM (inactive) | GI50 [22]: 29.5 µM (inactive) | GI50 [23]: 23.3 µM (inactive) | GI50 [24]: > 100 µM (inactive) | GI50 [25]: 38 µM (inactive) | GI50 [26]: 57.7 µM (inactive) | GI50 [27]: 33 µM (inactive) | GI50 [28]: 33.1 µM (inactive) | GI50 [29]: > 100 µM (inactive) | GI50 [30]: 19.4 µM (inactive) | GI50 [32]: > 100 µM (inactive) | GI50 [33]: 35.1 µM (inactive) | GI50 [34]: 64.4 µM (inactive) | GI50 [53]: 38.1 µM (inactive) | GI50 [35]: 35.2 µM (inactive) | GI50 [54]: 42.4 µM (inactive) | GI50 [38]: 24.9 µM (inactive) | GI50 [39]: 97.1 µM (inactive) | GI50 [40]: 0.214 µM (active) | GI50 [41]: 43 µM (inactive) | GI50 [55]: 96.2 µM (inactive) | GI50 [42]: 24.4 µM (inactive) | GI50 [43]: 42.2 µM (inactive) | GI50 [44]: 14.6 µM (inactive) | GI50 [56]: 18 µM (inactive) | GI50 [45]: 19.9 µM (inactive) | GI50 [46]: 29.4 µM (inactive)

CC/C=C(\C(=C/CC)[N+](=O)[O-])[N+](=O)[O-]
GI50 [2]: 95.5 µM (inactive) | GI50 [3]: > 100 µM (inactive) | GI50 [5]: 17.5 µM (inactive) | GI50 [47]: 31 µM (inactive) | GI50 [6]: 22.8 µM (inactive) | GI50 [48]: 19.9 µM (inactive) | GI50 [7]: 8.22 µM (inactive) | GI50 [8]: 13.4 µM (inactive) | GI50 [9]: 18.9 µM (inactive) | GI50 [10]: 16.7 µM (inactive) | GI50 [11]: > 100 µM (inactive) | GI50 [49]: 18 µM (inactive) | GI50 [12]: 21.4 µM (inactive) | GI50 [13]: 18 µM (inactive) | GI50 [14]: 18.9 µM (inactive) | GI50 [16]: 17.7 µM (inactive) | GI50 [57]: 23.2 µM (inactive) | GI50 [50]: 21 µM (inactive) | GI50 [51]: 24.1 µM (inactive) | GI50 [18]: 19.4 µM (inactive) | GI50 [19]: 18.9 µM (inactive) | GI50 [52]: 17.8 µM (inactive) | GI50 [20]: 33.1 µM (inactive) | GI50 [21]: > 100 µM (inactive) | GI50 [22]: 16.1 µM (inactive) | GI50 [24]: 13.4 µM (inactive) | GI50 [26]: 18.7 µM (inactive) | GI50 [28]: > 10 µM (inactive) | GI50 [29]: > 100 µM (inactive) | GI50 [30]: 16.8 µM (inactive) | GI50 [31]: 23.7 µM (inactive) | GI50 [32]: 21.3 µM (inactive) | GI50 [33]: 15.6 µM (inactive) | GI50 [34]: 17.1 µM (inactive) | GI50 [35]: 74.6 µM (inactive) | GI50 [36]: 14.9 µM (inactive) | GI50 [58]: 17.6 µM (inactive) | GI50 [54]: 20.7 µM (inactive) | GI50 [37]: 42.7 µM (inactive) | GI50 [59]: 28.4 µM (inactive) | GI50 [38]: 21.3 µM (inactive) | GI50 [39]: 18.1 µM (inactive) | GI50 [40]: 17.1 µM (inactive) | GI50 [41]: 16.4 µM (inactive) | GI50 [55]: 58.2 µM (inactive) | GI50 [43]: 30.3 µM (inactive) | GI50 [44]: 18.1 µM (inactive) | GI50 [56]: 19.9 µM (inactive) | GI50 [45]: 22.8 µM (inactive) | GI50 [46]: 47.5 µM (inactive)
